The results in this text go back to patent US8796416B1, “ACTH prophylactic treatment of renal disorders” (Questcor Pharmaceuticals, Inc, priority 2010, dated 2014).

For the experiment, the system named is melanocortin receptor. Kind of experiment: Melanocortin receptor modulation by ACTH1-39 (applicants' finding, no method given).

Turning to “H-Ser-Tyr-Ser-Met-Glu-His-Phe-Arg-Trp-Gly-Lys-Pro-Val-Gly-Lys-Lys-Arg-Arg-Pro-Val-Lys-Val-Tyr-Pro-Asp-Gly-Ala-Glu-Asp-Gln-Leu-Ala-Glu-Ala-Phe-Pro-Leu-Glu-Phe-OH (H-SYSMEHFRWGKPVGKKRRPVKVYPDGAEDQLAEAFPLEF-OH) [ACTH1-39]”, the melanocortin receptor modulation entry is listed as “pan-melanocortin receptor modulator”.
